Results taken from patent publication US11591306B2, “Vitamin E-based amphipathic compound, and use thereof” (Industry-University Cooperation Foundation Hanyang …, priority 2017, dated 2023).

Experiments:
[1] = Hydrodynamic radius of micelles by dynamic light scattering (DLS); format: physicochemical; settings: at 1.0 wt %
Method: A method of measuring the radius of a micelle is not particularly limited, but may be a method well known in the art, for example, dynamic light scattering (DLS).
To identify the properties of VEGs synthesized according to the synthetic methods of Preparation Examples 1 to […] molecular weights (M.W.) and critical micellar concentrations (CMCs) of VEGs, and the hydrodynamic radii (Rh) of formed micelles were measured.
Specifically, the CMCs were measured using hydrophobic fluorescence staining and diphenylhexatriene (DPH), and the hydrodynamic radii (Rh) of the micelles formed by each formulation were measured by dynamic light scattering (DLS).

LHI-RC complex = test system: T1, LHI-RC complex; experiment: LHI-RC structural stability, UV-Vis absorbance at 875 nm; set-up: species or system R. capsulatus; settings: CMC+0.04 wt % or CMC+0.2 wt %, 20 days at 25° C.
T1 construct: His tag (only implied by Ni2+-NTA capture and imidazole elution; put on M from own knowledge of pUHTM86Bgl); made in house; host or cells: R. capsulatus U43 [pUHTM86Bgl] membranes
Method: An experiment was conducted to evaluate the ability of VEGs to stabilize the structure of LHI-RC. The photosynthetic superassembly consists of a complex of light-Harvesting complex I (LHI) and a reaction center (RC). The structural stability of LHI-RC was measured by a method of monitoring the structure of a protein for 20 days using UV-Vis spectroscopy. As amphipathic molecules, all VEGs of the present invention and conventional amphipathic molecules DDM and OG were used, and the concentrations of the amphipathic molecules were measured at CMC+0.04 wt % (FIG. 5A) and CMC+0.2 wt % ([…]), and the stability of the LHI-RC protein was investigated according to the concentration of an amphipathic molecule.
Specifically, LHI-RC stability was measured using a method disclosed in the paper published in 2008 by the inventors (P. S. Chae et al., ChemBioChem 2008, 9, 1706-1709). […] A 10 mL aliquot of the solution of the frozen R. capsulatus membrane was homogenized using a glass homogenizer, and incubated with gentle stirring at 32° C. for 30 minutes. The homogenized membrane was treated with 1.0 wt % DDM for 30 minutes at 32° C. […] Protein stability was measured at regular intervals during the cubation by measuring UV-Vis spectra of the samples in the range of 650 to 950 nm. Protein integrity was evaluated by monitoring absorbance (A875) at 875 nm.

[2] = target: T2, MelBSt (melibiose permease) (Salmonella typhimurium, UniProt P30878); experiment: MelBSt extraction/solubilization and thermal stability, SDS-PAGE and Western blotting
T2 construct: made in house; host or cells: E. coli DW2 (ΔmelB and ΔlacZY), plasmid pK95ΔAHB/WT MelBSt/CH10
Method: Specifically, Salmonella typhimurium MelBSt (melibiose permease) having a 10 His tag at the C-terminus was expressed in E. coli DW2 cells (ΔmelB and ΔlacZY) using a pK95ΔAHB/WT MelBSt/CH10 plasmid. Cell growth and membrane preparation were carried out according to the methods disclosed in the paper written by A. S. Ethayathulla et al. (Nat. Commun. 2014, 5, 3009). A protein assay was performed using a Micro BCA kit (Thermo Scientific, Rockford, Ill.). MelBSt stability in VEGs or DDM was evaluated using the protocol disclosed in Nat. Methods 2010, 7, 1003-1008, written by P. S. Chae et al. A MelBSt-containing membrane sample (the final protein concentration was 10 mg/mL) was incubated in a solubilization buffer containing 1.5% (w/v) DDM or VEGs (50 mM sodium phosphate, pH 7.5, 200 mM NaCl, 10% glycerol, 20 mM melibiose) at two different temperatures (0 and 23° C.) for 90 minutes. To remove an insoluble material, ultracentrifugation was performed using a Beckman Optima™ MAX ultracentrifuge equipped with a TLA-100 rotor at 355,590 g and 4° C. for 30 minutes. […] The loaded samples were analyzed by SDS-15% PAGE, and then visualized by immunoblotting with a Penta-His-HRP antibody (Qiagen, Germantown, Md.).
To assess the thermal stability of MelBSt in various amphipathic molecules, MelBSt extracted with individual amphipathic molecules at 23° C. was subjected to additional thermal treatment at three different temperature (45, 55 and 65° C.) and ultracentrifugation, followed by SDS-15% PAGE and Western blotting. MelBSt was detected using a SuperSignalWest Pico chemiluminescent substrate by an ImageQuant LAS 4000 Biomolecular Imager (GE Healthcare Life Science).

UapA = UapA (Emericella nidulans, UniProt Q07307, G411V); experiment: UapA extraction and thermal stability by fluorescence size exclusion chromatography (FSEC); set-up: made in house
Method: The membrane containing UapA was resuspended in a pH 8.0 PBS buffer containing 10 mM imidazole, 150 mM NaCl and 10% glycerol, and a protein concentration was measured. The membrane was adjusted to a concentration of 1 mg/ml, and a 1 ml aliquot was incubated for 60 minutes with each of 1.0 mL of DDM, LMNG, VEG-3 and VEG-5, on ice under stirring. A 100 uL aliquot was obtained from each tube and subjected to ultracentrifugation for 10 minutes at 150,000 g, and then fluorescent SEC (FSEC) was performed on each sample. The remaining soluble fractions were incubated for 10 minutes at 45° C. The thermally-treated samples were applied to FSEC to monitor the integrity of a transporter. FSEC was performed using a Superose6 column (GE Healthcare) equilibrated with a buffer containing an appropriate preparation (DDM, LMNG, VEG-3 or VEG-5).

Q: With Cc1c(C)c2c(c(C)c1OCC(=O)NC(CO[C@@H]1OC(CO)[C@@H](O[C@H]3OC(CO)[C@@H](O)[C@H](O)C3O)[C@H](O)C1O)CO[C@@H]1OC(CO)[C@@H](O[C@H]3OC(CO)[C@@H](O)[C@H](O)C3O)[C@H](O)C1O)CCC(C)(CCCC(C)CCCC(C)CCCC(C)C)O2 (stereo partly drawn) [VEG-3] as the compound, how does the “Rh (nm), hydrodynamic radius of micelles” value [1] read?
A: 4.8 ± 0.1 nm

Q: What about the “Ability to maintain the integrity of the LHI-RC complex (A875)” value (LHI-RC complex) of the same compound?
A: most excellent effect

Q: And the MelBSt solubilization ability ([2]; 1.5 wt %, extracted at 23° C., then 65° C.)?
A: very excellent protein solubilization ability

Q: What about the “MelBSt transporter solubilization ability in the thermal stability experiment” value ([2]; elevated temperatures (overall)) of the same compound?
A: higher transporter solubilization ability than DDM

Q: And the “UapA integrity after thermal treatment (FSEC)” value (UapA; 45° C. for 10 minutes)?
A: maintained protein integrity

Q: What about the “Ability to extract and solubilize UapA (FSEC)” value (UapA; before thermal treatment, 60 minutes on ice) of the same compound?
A: LMNG and DDM were superior to VEG-3 and VEG-5
